# Earlier results in PubChem BioAssay AID1259409 (Chemical Carcinogenesis Research Information System (CCRIS), 2018).
# System: rodent chemically induced tumor inhibition, incidence and multiplicity
# Test: CCRIS tumor inhibitor studies
# Conditions: Route [Inhibitor]: ORAL, Promoter: NONE USED
smiles,measurement,setting,value
CC1=C(CC(=O)O)c2cc(F)ccc2/C1=C\c1ccc(S(C)=O)cc1 (stereo unspecified),"tumour outcome (control, treated, inhibition, significance)","Carcinogen: 1,2-DIMETHYLHYDRAZINE HYDROCHLORIDE, 306-37-6, Dose [Inhibitor]: 5 MG/KG BW IN DRINKING WATER ADMINISTERED CONCURRENTLY WITH CARCINOGEN FOR 24 WK (STUDY DURATION: 24 WK), Species: MOUSE, Strain/Sex: BALB/FEMALE, Target Tissue: Type of Lesion: COLON: MICROADENOMA, Dose [Carcinogen]: 25 MG/KG BW IN 0.4% EDTA AND 0.9% NORMAL SALINE 1/WK FOR 24 WK","35/38 (92%), 18/38 (47%), 49%, not calculated"
same,"tumour outcome (control, treated, inhibition, significance)","Carcinogen: 1,2-DIMETHYLHYDRAZINE HYDROCHLORIDE, 306-37-6, Dose [Inhibitor]: 5 MG/KG BW IN DRINKING WATER BEGINNING 10 D POST LAST CARCINOGEN DOSE AND CONTINUING FOR 78 D (STUDY DURATION: 28 WK), Species: MOUSE, Strain/Sex: BALB/FEMALE, Target Tissue: Type of Lesion: COLON: MICROADENOMA, Dose [Carcinogen]: 25 MG/KG BW IN 0.4% EDTA AND 0.9% NORMAL SALINE 1/WK FOR 17 WK","15/18 (83%), 13/18 (72%), 13%, not calculated"
same,"tumour outcome (control, treated, inhibition, significance)","Carcinogen: 1-METHYL-1-NITROSOUREA, 684-93-5, Dose [Inhibitor]: 0, 0.06% IN A PURIFIED HIGH-FAT (24.6%) DIET FOR 37 WK BEGINNING 1 WK POST CARCINOGEN DOSE (STUDY DURATION:38 WK), Species: RAT, Strain/Sex: SPRAGUE-DAWLEY/FEMALE, Target Tissue: Type of Lesion: MAMMARY GLAND: CARCINOMA, Dose [Carcinogen]: 12.5 MG/KG BW ONCE","30%, 9%, 70%, p<0.05"
same,"tumour outcome (control, treated, inhibition, significance)","Carcinogen: 1-METHYL-1-NITROSOUREA, 684-93-5, Dose [Inhibitor]: 0, 0.06% IN DIET FOR DURATION OF STUDY BEGINNING 7 D POST CARCINOGEN DOSE (STUDY DURATION: 24 WK), Species: RAT, Strain/Sex: SPRAGUE-DAWLEY/FEMALE, Target Tissue: Type of Lesion: MAMMARY GLAND: ADENOCARCINOMA, Dose [Carcinogen]: 50 MG/KG ONCE","93%, 87%, 6%, not significant"
same,"tumour outcome (control, treated, inhibition, significance)","Carcinogen: 4-(METHYLNITROSAMINO)-1-(3-PYRIDYL)-1-BUTANONE, 64091-91-4, Dose [Inhibitor]: 0, 0.13 G/KG DIET (EFFECTIVE DOSE 0.95 UMOL/D) BEGINNING 2 WK PRIOR TO CARCINOGEN TREATMENT AND CONTINUING FOR DURATION, Species: MOUSE, Strain/Sex: STRAIN-A/FEMALE, Target Tissue: Type of Lesion: LUNG: TUMORS, Dose [Carcinogen]: 9.0-9.2 MG/MOUSE (TOTAL DOSE) IN DRINKING WATER ADMINISTERED OVER 7 WK","28/28 (100%), 23/25 (92%), 8%, not significant"
same,"tumour outcome (control, treated, inhibition, significance)","Carcinogen: 4-(METHYLNITROSAMINO)-1-(3-PYRIDYL)-1-BUTANONE, 64091-91-4, Dose [Inhibitor]: 0, 15 MG/KG BW IN DIET FOR DURATION OF STUDY BEGINNING 2 WK PRIOR TO CARCINOGEN TREATMENT (STUDY DURATION: 25 WK), Species: MOUSE, Strain/Sex: STRAIN-A/FEMALE, Target Tissue: Type of Lesion: LUNG: TUMOR, Dose [Carcinogen]: 9.1 MG/MOUSE (TOTAL DOSE) ADMINISTERED IN DRINKING WATER OVER 7 WK","23/24 (96%), 25/25 (100%), -4%, not significant"
same,outcome,"Carcinogen: 4-(METHYLNITROSAMINO)-1-(3-PYRIDYL)-1-BUTANONE, 64091-91-4, Dose [Inhibitor]: 0, 123 MG/KG DIET FOR 2 WK BEGINNING 2 WK PRIOR TO CARCINOGEN TREATMENT (STUDY DURATION: 18 WK), Species: MOUSE, Strain/Sex: STRAIN-A/FEMALE, Target Tissue: Type of Lesion: LUNG: TUMOR, Dose [Carcinogen]: 2 MG IN 0.5 ML 0.9% SALINE ONCE","25/25 (100%), 20/20 (100%), o%, not significant"
same,outcome,"Carcinogen: 4-(METHYLNITROSAMINO)-1-(3-PYRIDYL)-1-BUTANONE, 64091-91-4, Dose [Inhibitor]: 0, 123 MG/KG DIET FOR 18 WK BEGINNING 2 WK PRIOR TO CARCINOGEN TREATMENT (STUDY DURATION: 18 WK), Species: MOUSE, Strain/Sex: STRAIN-A/FEMALE, Target Tissue: Type of Lesion: LUNG: TUMOR, Dose [Carcinogen]: 2 MG IN 0.5 ML 0.9% SALINE ONCE","25/25 (100%), 24/24 (100%), o%, not significant"
same,outcome,"Carcinogen: 4-(METHYLNITROSAMINO)-1-(3-PYRIDYL)-1-BUTANONE, 64091-91-4, Dose [Inhibitor]: 0, 123 MG/KG DIET FOR 25 WK BEGINNING 2 WK PRIOR TO CARCINOGEN TREATMENT (STUDY DURATION: 25 WK), Species: MOUSE, Strain/Sex: STRAIN-A/FEMALE, Target Tissue: Type of Lesion: LUNG: TUMOR, Dose [Carcinogen]: 62.4 UG/ML IN DRINKING WATER FOR 7 WK FOR A CUMULATIVE DOSE OF 9.1 MG/MOUSE","25/25 (100%), 24/24 (100%), o%, not significant"
same,"tumour outcome (control, treated, inhibition, significance)","Carcinogen: 4-(METHYLNITROSAMINO)-1-(3-PYRIDYL)-1-BUTANONE, 64091-91-4, Dose [Inhibitor]: 0, 123 MG/KG IN DIET FOR 9 WK BEGINNING 2 WK PRIOR TO CARCINOGEN TREATMENT (STUDY DURATION: 25 WK), Species: MOUSE, Strain/Sex: STRAIN-A/FEMALE, Target Tissue: Type of Lesion: FORESTOMACH: TUMOR, Dose [Carcinogen]: 9.1 MG IN DRINKING WATER FOR 7 WK","7/25 (28%), 2/25 (8%), 71%, not significant"
same,"tumour outcome (control, treated, inhibition, significance)","Carcinogen: 4-(METHYLNITROSAMINO)-1-(3-PYRIDYL)-1-BUTANONE, 64091-91-4, Dose [Inhibitor]: 0, 123 MG/KG IN DIET FOR 16 WK BEGINNING POST CARCINOGEN TREATMENT (STUDY DURATION: 25 WK), Species: MOUSE, Strain/Sex: STRAIN-A/FEMALE, Target Tissue: Type of Lesion: FORESTOMACH: TUMOR, Dose [Carcinogen]: 9.1 MG IN DRINKING WATER FOR 7 WK","7/25 (28%), 3/22 (14%), 50%, not significant"
same,"tumour outcome (control, treated, inhibition, significance)","Carcinogen: 4-(METHYLNITROSAMINO)-1-(3-PYRIDYL)-1-BUTANONE, 64091-91-8, Dose [Inhibitor]: 0, 123 MG/KG IN DIET FOR 25 WK BEGINNING 2 WK PRIOR TO CARCINOGEN TREATMENT (STUDY DURATION: 25 WK), Species: MOUSE, Strain/Sex: STRAIN-A/FEMALE, Target Tissue: Type of Lesion: FORESTOMACH: TUMOR, Dose [Carcinogen]: 9.1 MG IN DRINKING WATER FOR 7 WK","7/25 (28%), 1/25 (4%), 86%, p<0.05"
same,"tumour outcome (control, treated, inhibition, significance)","Carcinogen: AZOXYMETHANE, 25843-45-2, Dose [Inhibitor]: 0, 160 PPM IN DIET FOR DURATION OF STUDY BEGINNING 2 WK PRIOR TO CARCINOGEN TREATMENT (STUDY DURATION: 54 WK), Species: RAT, Strain/Sex: F344/MALE, Target Tissue: Type of Lesion: COLON: ADENOCARCINOMA, Dose [Carcinogen]: 15 MG/KG BW 1/WK FOR 2 WK","81%, 47%, 42%, p<0.01"
same,"tumour outcome (control, treated, inhibition, significance)","Carcinogen: AZOXYMETHANE, 25843-45-2, Dose [Inhibitor]: 0, 320 PPM IN DIET FOR 38 WK BEGINNING 14 WK POST CARCINOGEN TREATMENT (STUDY DURATION: 54 WK), Species: RAT, Strain/Sex: F344/MALE, Target Tissue: Type of Lesion: COLON: ADENOCARCINOMA, Dose [Carcinogen]: 15 MG/KG BW 1/WK FOR 2 WK","81%, 26%, 68%, p<0.0001"
same,"tumour outcome (control, treated, inhibition, significance)","Carcinogen: AZOXYMETHANE, 25843-45-2, Dose [Inhibitor]: 0, 320 PPM IN DIET FOR DURATION OF STUDY BEGINNING 2 WK PRIOR TO CARCINOGEN TREATMENT (STUDY DURATION: 54 WK), Species: RAT, Strain/Sex: F344/MALE, Target Tissue: Type of Lesion: COLON: ADENOCARCINOMA, Dose [Carcinogen]: 15 MG/KG BW 1/WK FOR 2 WK","81%, 36%, 56%, p<0.0001"
same,"tumour outcome (control, treated, inhibition, significance)","Carcinogen: AZOXYMETHANE, 25843-45-2, Dose [Inhibitor]: 0, 400 PPM IN DIET FOR 29 WK BEGINNING 1 WK POST CARCINOGEN TREATMENT (STUDY DURATION: 32 WK), Species: RAT, Strain/Sex: F344/MALE, Target Tissue: Type of Lesion: COLON: ADENOMA, Dose [Carcinogen]: 15 MG/KG BW 1/WK FOR 2 WK","77%, 30%, 61%, p<0.05"
same,"tumour outcome (control, treated, inhibition, significance)","Carcinogen: AZOXYMETHANE, 25843-45-2, Dose [Inhibitor]: 0, 400 PPM IN DIET FOR 29 WK BEGINNING 1 WK POST CARCINOGEN TREATMENT (STUDY DURATION: 32 WK), Species: RAT, Strain/Sex: F344/MALE, Target Tissue: Type of Lesion: COLON: CARCINOMA, Dose [Carcinogen]: 15 MG/KG BW 1/WK FOR 2 WK","53%, 13%, 75%, p<0.05"
same,"tumour outcome (control, treated, inhibition, significance)","Carcinogen: N-BUTYL-N-(4-HYDROXYBUTYL)NITROSAMINE, 3817-11-6, Dose [Inhibitor]: 0, 200 MG/KG DIET FOR 24 WK BEGINNING 1 WK PRIOR TO CARCINOGEN TREATMENT (STUDY DURATION: 24 WK), Species: MOUSE, Strain/Sex: BDF/MALE, Target Tissue: Type of Lesion: URINARY BLADDER: TRANSITIONAL CELL CARCINOMA, Dose [Carcinogen]: 7.5 MG 1/WK FOR 8 WK","20/74 (27%), 6/73 (8%), 70%, p<0.01"
same,"tumour outcome (control, treated, inhibition, significance)","Carcinogen: N-BUTYL-N-(4-HYDROXYBUTYL)NITROSAMINE, 3817-11-6, Dose [Inhibitor]: 0, 400 MG/KG DIET FOR 24 WK BEGINNING 1 WK PRIOR TO CARCINOGEN TREATMENT (STUDY DURATION: 24 WK), Species: MOUSE, Strain/Sex: BDF/MALE, Target Tissue: Type of Lesion: URINARY BLADDER: TRANSITIONAL CELL CARCINOMA, Dose [Carcinogen]: 7.5 MG 1/WK FOR 8 WK","20/74 (27%), 2/75 (3%), 89%, p<0.01"
same,"tumour outcome (control, treated, inhibition, significance)","Carcinogen: N-NITROSOMETHYLBENZYLAMINE, 937-40-6, Dose [Inhibitor]: 0, 125 PPM IN DIET FOR DURATION OF STUDY BEGINNING 1 WK POST CARCINOGEN TREATMENT (STUDY DURATION: 25 WK), Species: RAT, Strain/Sex: F344/MALE, Target Tissue: Type of Lesion: ESOPHAGUS: TUMOR, Dose [Carcinogen]: 1 MG/KG 3/WK FOR 5 WK","15/15 (100%), 14/15 (93%), 7%, not significant"
same,"tumour outcome (control, treated, inhibition, significance)","Carcinogen: N-NITROSOMETHYLBENZYLAMINE, 937-40-6, Dose [Inhibitor]: 0, 125 PPM IN DIET FOR DURATION OF STUDY BEGINNING 2 WK PRIOR TO CARCINOGEN TREATMENT (STUDY DURATION: 25 WK), Species: RAT, Strain/Sex: F344/MALE, Target Tissue: Type of Lesion: ESOPHAGUS: TUMOR, Dose [Carcinogen]: 1 MG/KG 3/WK FOR 5 WK","15/15 (100%), 14/15 (93%), 7%, not significant"
